# From US11753445B2, “Therapeutic peptides” (COHBAR, INC., priority 2016, dated 2023)
# Peptide text beside a SMILES is read from it.
# Assays:
# [1] = system: 3T3-L1 Adipocytes; assay: Free fatty acid levels in cultured mouse 3T3-L1 adipocytes, isoproterenol stimulated (Example 2); type: cell-based; conditions: test peptides 25 μM; isoproterenol 1 nM
# Description: Mouse 3T3-L1 cells were seeded at a density between 1,000-20,000 cells per well on 96-well, 48-well, or 24-well plates in Pre-adipocyte Medium (Zen-Bio, Durham, N.C.) and grown to confluence at 37° C. in a humidified atmosphere of 5% CO2/95% air. Two days after confluence, cells were placed in Adipocyte Differentiation Medium (Zen-Bio, Durham, N.C.) and cultured for three additional days at 37° C. in a humidified atmosphere of 5% CO2/95% air. The culture media was then replaced with Adipocyte Maintenance Medium (Zen-Bio) and the cells were maintained for an additional 9-14 days at 37° C. in a humidified atmosphere of 5% CO2/95% air with partial medium replacement every other day. Following 12-17 days of differentiation, test peptides were added at a final concentration of 25 μM and incubated for 18-20 hours in Adipocyte Maintenance Medium at 37° C. in a humidified atmosphere of 5% CO2/95%. After 18-20 hours, the media was exchanged with fresh Adipocyte Maintenance Medium containing test peptides and incubated for 1 h at 37° C. in a humidified atmosphere of 5% CO2/95%. After 1 h media was exchanged with Assay Buffer (Zen-Bio) containing isoproterenol (1 nM) (added to all samples except untreated controls) and the test peptides. Cells were incubated for a further 3 hours at 37° C. in a humidified atmosphere of 5% CO2/95%. Free fatty acid concentrations in the media were determined using a Free Fatty Acid Assay Kit (Zen-Bio) according to the manufacturer's instructions using a plate reader (540 nm).
# Absorbance values were corrected for untreated background and expressed relative to isoproterenol treated cells. Treatment with isoproterenol (1 nM) alone was used as the free fatty acid level stimulatory control. The relative standard deviation of the isoproterenol control was <10%. […] Free fatty acid levels for insulin (100 nM) treatment were <5% of the isoproterenol control value.
# [2] = Stability in mouse plasma, peptides 10 uM (Example 15); type: in vitro ADME; conditions: mouse plasma 37° C., peptide 10 uM; for remaining at 0.25 h, 10 uM / remaining at 0.5 h, 10 uM / remaining at 1 h, 10 uM / remaining at 2 h, 10 uM / remaining at 3 h, 10 uM: pooled mouse plasma; for remaining at 0.25 h, 10 uM: 15 min, read-out: % Remaining at Each Time Point: 15 min; for remaining at 0.5 h, 10 uM: 30 min, read-out: % Remaining at Each Time Point: 30 min; for remaining at 1 h, 10 uM: 60 min, read-out: % Remaining at Each Time Point: 60 min; for remaining at 2 h, 10 uM: 120 min, read-out: % Remaining at Each Time Point: 120 min; for remaining at 3 h, 10 uM: 180 min, read-out: % Remaining at Each Time Point: 180 min
# Description: Peptides (10 uM) were incubated in pooled mouse plasma at 37° C. and samples were removed and immediately analyzed for the concentration of intact peptide by LC/MS/MS over the course of 3 hours. The percent of peptide remaining in plasma at each time point was calculated relative to the initial peak area (Table 13).
Molecule,Free Fatty Acid Levels in 3T3-L1 Adipocytes Expressed as a Percent of Isoproterenol Control: Percent of Control Value [1],% Remaining at Each Time Point: 0 min [2],"remaining at 0.25 h, 10 uM [2]","remaining at 0.5 h, 10 uM [2]","remaining at 1 h, 10 uM [2]","remaining at 2 h, 10 uM [2]","remaining at 3 h, 10 uM [2]"
CC[C@H](C)[C@H](NC(=O)[C@H](Cc1ccc(O)cc1)NC(=O)[C@@H](C)NC(=O)[C@H](CCSC)NC(=O)[C@H](CCC(=O)O)NC(=O)[C@H](CCC(N)=O)NC(=O)[C@H](Cc1c[nH]c2ccccc12)NC(=O)[C@H](CCCNC(=N)N)NC(=O)[C@H](CCSC)NC(C)=O)C(=O)N[C@@H](Cc1ccccc1)C(=O)N[C@@H](Cc1ccc(O)cc1)C(=O)N1CCC[C@H]1C(=O)N[C@@H](CCCNC(=N)N)C(=O)N[C@@H](CCCCN)C(=O)N[C@@H](CC(C)C)C(=O)N[C@@H](CCCNC(=N)N)C(N)=O [compound 88] (HELM PEPTIDE1{[ac].M.R.W.Q.E.M.[dA].Y.I.F.Y.P.R.K.L.R.[am]}$$$$V2.0),75.1%,,,,,,
CC[C@H](C)[C@H](NC(=O)[C@H](Cc1ccc(O)cc1)NC(=O)CNC(=O)[C@H](CCSC)NC(=O)[C@H](CCC(=O)O)NC(=O)[C@H](CCC(N)=O)NC(=O)[C@H](Cc1c[nH]c2ccccc12)NC(=O)C(C)(C)NC(=O)[C@@H](N)CCSC)C(=O)N[C@@H](Cc1ccccc1)C(=O)N[C@@H](Cc1ccc(O)cc1)C(=O)N1CCC[C@H]1C(=O)N[C@@H](CCCNC(=N)N)C(=O)N[C@@H](CCCCN)C(=O)N[C@@H](CC(C)C)C(=O)N[C@@H](CCCNC(=N)N)C(=O)O [compound 118] (HELM PEPTIDE1{M.[Aib].W.Q.E.M.G.Y.I.F.Y.P.R.K.L.R}$$$$V2.0),84.6%,,,,,,
CC[C@H](C)[C@H](NC(=O)[C@H](Cc1ccc(O)cc1)NC(=O)CNC(=O)[C@H](CCSC)NC(=O)[C@H](CCC(=O)O)NC(=O)[C@H](CCC(N)=O)NC(=O)[C@H](Cc1c[nH]c2ccccc12)NC(=O)C(C)(C)NC(=O)[C@@H](N)CCSC)C(=O)N[C@@H](Cc1ccccc1)C(=O)N[C@@H](Cc1ccc(O)cc1)C(=O)N1CCC[C@H]1C(=O)N[C@@H](CCCNC(=N)N)C(=O)N[C@@H](CCCCN)C(=O)N[C@@H](CC(C)C)C(=O)N[C@@H](CCCNC(=N)N)C(N)=O [compound 119] (HELM PEPTIDE1{M.[Aib].W.Q.E.M.G.Y.I.F.Y.P.R.K.L.R.[am]}$$$$V2.0),89.2%,,,,,,
CC[C@H](C)[C@H](NC(=O)[C@H](Cc1ccc(O)cc1)NC(=O)CNC(=O)[C@H](CCSC)NC(=O)[C@H](CCC(=O)O)NC(=O)[C@H](CCC(N)=O)NC(=O)[C@H](Cc1c[nH]c2ccccc12)NC(=O)C(C)(C)NC(=O)[C@H](CCSC)NC(C)=O)C(=O)N[C@@H](Cc1ccccc1)C(=O)N[C@@H](Cc1ccc(O)cc1)C(=O)N1CCC[C@H]1C(=O)N[C@@H](CCCNC(=N)N)C(=O)N[C@@H](CCCCN)C(=O)N[C@@H](CC(C)C)C(=O)N[C@@H](CCCNC(=N)N)C(=O)O [compound 120] (HELM PEPTIDE1{[ac].M.[Aib].W.Q.E.M.G.Y.I.F.Y.P.R.K.L.R}$$$$V2.0),86.0%,,,,,,
CC[C@H](C)[C@H](NC(=O)[C@H](Cc1ccc(O)cc1)NC(=O)CNC(=O)[C@H](CCSC)NC(=O)[C@H](CCC(=O)O)NC(=O)[C@H](CCC(N)=O)NC(=O)[C@H](Cc1c[nH]c2ccccc12)NC(=O)C(C)(C)NC(=O)[C@H](CCSC)NC(C)=O)C(=O)N[C@@H](Cc1ccccc1)C(=O)N[C@@H](Cc1ccc(O)cc1)C(=O)N1CCC[C@H]1C(=O)N[C@@H](CCCNC(=N)N)C(=O)N[C@@H](CCCCN)C(=O)N[C@@H](CC(C)C)C(=O)N[C@@H](CCCNC(=N)N)C(N)=O [compound 121] (HELM PEPTIDE1{[ac].M.[Aib].W.Q.E.M.G.Y.I.F.Y.P.R.K.L.R.[am]}$$$$V2.0),89.8%,,,,,,
CC[C@H](C)[C@H](NC(=O)[C@H](Cc1ccc(O)cc1)NC(=O)CNC(=O)[C@H](CCSC)NC(=O)[C@H](CCC(=O)O)NC(=O)[C@H](CCC(N)=O)NC(=O)[C@H](Cc1c[nH]c2ccccc12)NC(=O)[C@H](CCCNC(=N)N)NC(=O)[C@@H](C)N)C(=O)N[C@@H](Cc1ccccc1)C(=O)N[C@@H](Cc1ccc(O)cc1)C(=O)N1CCC[C@H]1C(=O)N[C@@H](CCCNC(=N)N)C(=O)N[C@@H](CCCCN)C(=O)N[C@@H](CC(C)C)C(=O)N[C@@H](CCCNC(=N)N)C(=O)O [compound 136] (HELM PEPTIDE1{[dA].R.W.Q.E.M.G.Y.I.F.Y.P.R.K.L.R}$$$$V2.0),44.2%,,,,,,
CC[C@H](C)[C@H](NC(=O)[C@H](Cc1ccc(O)cc1)NC(=O)CNC(=O)[C@H](CCSC)NC(=O)[C@H](CCC(=O)O)NC(=O)[C@H](CCC(N)=O)NC(=O)[C@H](Cc1c[nH]c2ccccc12)NC(=O)[C@@H](C)NC(=O)[C@@H](N)CCSC)C(=O)N[C@@H](Cc1ccccc1)C(=O)N[C@@H](Cc1ccc(O)cc1)C(=O)N1CCC[C@H]1C(=O)N[C@@H](CCCNC(=N)N)C(=O)N[C@@H](CCCCN)C(=O)N[C@@H](CC(C)C)C(=O)N[C@@H](CCCNC(=N)N)C(=O)O [compound 137] (HELM PEPTIDE1{M.[dA].W.Q.E.M.G.Y.I.F.Y.P.R.K.L.R}$$$$V2.0),91.4%,,,,,,
CC[C@H](C)[C@H](NC(=O)[C@H](Cc1ccc(O)cc1)NC(=O)CNC(=O)[C@H](CCSC)NC(=O)[C@H](CCC(=O)O)NC(=O)[C@H](CCC(N)=O)NC(=O)[C@@H](C)NC(=O)[C@H](CCCNC(=N)N)NC(=O)[C@@H](N)CCSC)C(=O)N[C@@H](Cc1ccccc1)C(=O)N[C@@H](Cc1ccc(O)cc1)C(=O)N1CCC[C@H]1C(=O)N[C@@H](CCCNC(=N)N)C(=O)N[C@@H](CCCCN)C(=O)N[C@@H](CC(C)C)C(=O)N[C@@H](CCCNC(=N)N)C(=O)O [compound 138] (HELM PEPTIDE1{M.R.[dA].Q.E.M.G.Y.I.F.Y.P.R.K.L.R}$$$$V2.0),71.5%,,,,,,
CC[C@H](C)[C@H](NC(=O)[C@H](Cc1ccc(O)cc1)NC(=O)CNC(=O)[C@H](CCSC)NC(=O)[C@H](CCC(=O)O)NC(=O)[C@@H](C)NC(=O)[C@H](Cc1c[nH]c2ccccc12)NC(=O)[C@H](CCCNC(=N)N)NC(=O)[C@@H](N)CCSC)C(=O)N[C@@H](Cc1ccccc1)C(=O)N[C@@H](Cc1ccc(O)cc1)C(=O)N1CCC[C@H]1C(=O)N[C@@H](CCCNC(=N)N)C(=O)N[C@@H](CCCCN)C(=O)N[C@@H](CC(C)C)C(=O)N[C@@H](CCCNC(=N)N)C(=O)O [compound 139] (HELM PEPTIDE1{M.R.W.[dA].E.M.G.Y.I.F.Y.P.R.K.L.R}$$$$V2.0),58.1%,,,,,,
H-RWQEENYIAEPR-OH [compound 261],,100%,85%,73.4%,69.3%,68.1%,73.7%
H-RWQEENYIFEPR-OH [compound 259],,100%,82.2%,65.2%,42.2%,32.8%,34.8%
H-RWQEENYIFYPR-OH [compound 258],,100%,63.2%,53.5%,36.3%,30.3%,21.7%
H-RWQEEQYIFYPR-OH [compound 263],,100%,80.7%,68.6%,46.9%,40.5%,30.8%
H-RWQEMQYIAYPR-OH [compound 255],,100%,78.3%,62.6%,40.9%,28.7%,19.6%
H-RWQEMQYIFEPR-OH [compound 254],,100%,52.4%,33.3%,30.3%,24%,18.1%
